Measured values reported in the supplement of paper PMC10307832.

Assays:
Assay in all cases: relative viability (nuclei count vs DMSO), 5 days (fraction); higher = more cells survive
[1] = tested on: A549
In short: (§1)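 A single step with final 0.05% Triton X-100, 1% formaldehyde and 1 ug/ml Hoechst fixed the cells and stained nuclei 5 days after treatment. Lung cancer cell lines in 1536-well plates had been treated by pin tool the day after seeding with one drug alone or a fixed anchor-drug dose plus five library-drug doses (not always all listed) in √10 steps, and nuclei were counted on 4× images. Relative viability is the ratio of nuclei in treated wells to nuclei in vehicle wells, taken as the median of duplicate plates.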

[2] = tested on: HCC-78
In short: as §1

[3] = tested on: NCI-H1623
In short: as §1

[4] = tested on: NCI-H2009
In short: as §1

[5] = tested on: NCI-H2342
In short: as §1

[6] = tested on: NCI-H358
In short: as §1

[7] = tested on: NCI-H460
In short: as §1

[8] = tested on: NCI-H522
In short: as §1

[9] = tested on: NCI-H661
In short: as §1

`Nc1ccn([C@@H]2O[C@H](CO)[C@@H](O)[C@@H]2O)c(=O)n1` [Cytarabine] + N=C(N)NC(=N)NCCc1ccccc1 [Phenformin] (partner 250 µM) gave a relative viability ([1]; first compound 0.005 µM) of 0.104, a relative viability ([1]; first compound 0.01581 µM) of 0.127 and a relative viability ([1]; first compound 0.05 µM) of 0.106. The relative viability ([1]; first compound 0.1581 µM) was 0.0512, the relative viability ([1]; first compound 0.5 µM) was 0.0301 and the relative viability ([2]; first compound 0.005 µM) was 0.8. For the same molecule, the relative viability ([2]; first compound 0.01581 µM) was 0.629, the relative viability ([2]; first compound 0.05 µM) was 0.466 and the relative viability ([2]; first compound 0.1581 µM) was 0.363. For the same molecule, the relative viability ([2]; first compound 0.5 µM) was 0.366, the relative viability ([3]; first compound 0.005 µM) was 0.432 and the relative viability ([3]; first compound 0.01581 µM) was 0.396. It also gave a relative viability ([3]; first compound 0.05 µM) of 0.357, a relative viability ([3]; first compound 0.1581 µM) of 0.402 and a relative viability ([3]; first compound 0.5 µM) of 0.431. The relative viability ([4]; first compound 0.005 µM) was 0.42, the relative viability ([4]; first compound 0.01581 µM) was 0.503 and the relative viability ([4]; first compound 0.05 µM) was 0.455. It also gave a relative viability ([4]; first compound 0.1581 µM) of 0.386, a relative viability ([4]; first compound 0.5 µM) of 0.268 and a relative viability ([5]; first compound 0.005 µM) of 0.543. For the same molecule, the relative viability ([5]; first compound 0.01581 µM) was 0.57, the relative viability ([5]; first compound 0.05 µM) was 0.482 and the relative viability ([5]; first compound 0.1581 µM) was 0.449. It also gave a relative viability ([5]; first compound 0.5 µM) of 0.404, a relative viability ([6]; first compound 0.005 µM) of 0.235 and a relative viability ([6]; first compound 0.01581 µM) of 0.2. For the same molecule, the relative viability ([6]; first compound 0.05 µM) was 0.222, the relative viability ([6]; first compound 0.1581 µM) was 0.0765 and the relative viability ([6]; first compound 0.5 µM) was 0.076. It also gave a relative viability ([7]; first compound 0.005 µM) of 0.309, a relative viability ([7]; first compound 0.01581 µM) of 0.248 and a relative viability ([7]; first compound 0.05 µM) of 0.114. The relative viability ([7]; first compound 0.1581 µM) was 0.0419, the relative viability ([7]; first compound 0.5 µM) was 0.0341 and the relative viability ([8]; first compound 0.005 µM) was 0.669. For the same molecule, the relative viability ([8]; first compound 0.01581 µM) was 0.602, the relative viability ([8]; first compound 0.05 µM) was 0.554 and the relative viability ([8]; first compound 0.1581 µM) was 0.489. For the same molecule, the relative viability ([8]; first compound 0.5 µM) was 0.449, the relative viability ([9]; first compound 0.005 µM) was 0.264 and the relative viability ([9]; first compound 0.01581 µM) was 0.254. The relative viability ([9]; first compound 0.05 µM) was 0.239, the relative viability ([9]; first compound 0.1581 µM) was 0.23 and the relative viability ([9]; first compound 0.5 µM) was 0.237.
